ChEMBL document CHEMBL1782000, “Thiazole-based chalcones as potent antimicrobial agents. Synthesis and biological evaluation” (2011)
Values after ≈ are worked out from the molar mass of the structure shown.

Columns and labels:
[1] = system: Staphylococcus aureus; assay: Antibacterial activity against Staphylococcus aureus ATCC 6538 after 24 hrs by microdilution method; type: functional; conditions: ATCC 6538, 24 h
[2] = system: Pseudomonas aeruginosa; assay: Antibacterial activity against Pseudomonas aeruginosa ATCC 27853 after 24 hrs by microdilution method; type: functional; conditions: ATCC 27853, 24 h
[3] = system: Aspergillus versicolor; assay: Fungicidal activity against Aspergillus versicolor ATCC 11730 after 72 hrs; type: functional; conditions: ATCC 11730, 72 h
[4] = system: Staphylococcus aureus; assay: Bactericidal activity against Staphylococcus aureus ATCC 6538 after 24 hrs; type: functional; conditions: ATCC 6538, 24 h
[5] = system: Bacillus cereus; assay: Antibacterial activity against Bacillus cereus clinical isolate after 24 hrs by microdilution method; type: functional
[6] = system: Salmonella typhimurium; assay: Antibacterial activity against Salmonella Typhimurium ATCC 13311 after 24 hrs by microdilution method; type: functional, Salmonella enterica subsp. enterica serovar Typhimurium; conditions: Salmonella enterica, ATCC 13311, 24 h
[7] = system: Aspergillus versicolor; assay: Antifungal activity against Aspergillus versicolor ATCC 11730 after 72 hrs by serial dilution method; type: functional; conditions: ATCC 11730, 72 h
[8] = system: Listeria monocytogenes; assay: Bactericidal activity against Listeria monocytogenes NCTC 7973 after 24 hrs; type: functional; conditions: NCTC 7973, 24 h
[9] = system: Fusarium sporotrichioides; assay: Fungicidal activity against Fusarium sporotrichioides IMT 496 after 72 hrs; type: functional; conditions: IMT 496, 72 h
[10] = system: Listeria monocytogenes; assay: Antibacterial activity against Listeria monocytogenes NCTC 7973 after 24 hrs by microdilution method; type: functional; conditions: NCTC 7973, 24 h
[11] = system: Aspergillus niger; assay: Antifungal activity against Aspergillus niger ATCC 6275 after 72 hrs by serial dilution method; type: functional; conditions: ATCC 6275, 72 h
[12] = Antifungal activity against Fusarium sporotrichioides IMT 496 after 72 hrs by serial dilution method; type: functional
[13] = system: Enterococcus faecalis; assay: Antibacterial activity against Enterococcus faecalis isolate obtained from human after 24 hrs by microdilution method; type: functional
[14] = system: Escherichia coli; assay: Antibacterial activity against Escherichia coli ATCC 35210 after 24 hrs by microdilution method; type: functional; conditions: ATCC 35210, 24 h
[15] = system: Micrococcus flavus; assay: Bactericidal activity against Micrococcus flavus ATCC 10240 after 24 hrs; type: functional; conditions: ATCC 10240, 24 h
[16] = system: Penicillium ochrochloron; assay: Fungicidal activity against Penicillium ochrochloron ATCC 9112 after 72 hrs; type: functional; conditions: ATCC 9112, 72 h
[17] = system: Micrococcus flavus; assay: Antibacterial activity against Micrococcus flavus ATCC 10240 after 24 hrs by microdilution method; type: functional; conditions: ATCC 10240, 24 h
[18] = system: Enterococcus faecalis; assay: Bactericidal activity against Enterococcus faecalis isolate obtained from human after 24 hrs; type: functional
[19] = system: Trichoderma viride; assay: Fungicidal activity against Trichoderma viride IAM 5061 after 72 hrs; type: functional; conditions: IAM 5061, 72 h
[20] = system: Aspergillus fumigatus; assay: Antifungal activity against Aspergillus fumigatus plant isolate after 72 hrs by serial dilution method; type: functional
[21] = system: Salmonella typhimurium; assay: Bactericidal activity against Salmonella Typhimurium ATCC 13311 after 24 hrs; type: functional, Salmonella enterica subsp. enterica serovar Typhimurium; conditions: Salmonella enterica, ATCC 13311, 24 h
[22] = system: Talaromyces funiculosus; assay: Antifungal activity against Penicillium funiculosum ATCC 36839 after 72 hrs by serial dilution method; type: functional; conditions: ATCC 36839, 72 h
[23] = system: Talaromyces funiculosus; assay: Fungicidal activity against Penicillium funiculosum ATCC 36839 after 72 hrs; type: functional; conditions: ATCC 36839, 72 h
[24] = system: Aspergillus fumigatus; assay: Fungicidal activity against Aspergillus fumigatus plant isolate after 72 hrs; type: functional
[25] = system: Aspergillus niger; assay: Fungicidal activity against Aspergillus niger ATCC 6275 after 72 hrs; type: functional; conditions: ATCC 6275, 72 h
[26] = system: Escherichia coli; assay: Bactericidal activity against Escherichia coli ATCC 35210 after 24 hrs; type: functional; conditions: ATCC 35210, 24 h
[27] = system: Aspergillus ochraceus; assay: Antifungal activity against Aspergillus ochraceus ATCC 12066 after 72 hrs by serial dilution method; type: functional; conditions: ATCC 12066, 72 h
[28] = system: Bacillus cereus; assay: Bactericidal activity against Bacillus cereus clinical isolate after 24 hrs; type: functional
[29] = system: Penicillium ochrochloron; assay: Antifungal activity against Penicillium ochrochloron ATCC 9112 after 72 hrs by serial dilution method; type: functional; conditions: ATCC 9112, 72 h
[30] = system: Pseudomonas aeruginosa; assay: Bactericidal activity against Pseudomonas aeruginosa ATCC 27853 after 24 hrs; type: functional; conditions: ATCC 27853, 24 h
[31] = system: Trichoderma viride; assay: Antifungal activity against Trichoderma viride IAM 5061 after 72 hrs by serial dilution method; type: functional; conditions: IAM 5061, 72 h
[32] = system: Aspergillus ochraceus; assay: Fungicidal activity against Aspergillus ochraceus ATCC 12066 after 72 hrs; type: functional; conditions: ATCC 12066, 72 h

Work on `CNc1nc(C)c(C(=O)/C=C/c2cccc([N+](=O)[O-])c2)s1` yielded an MIC [1] of 330 µM (≈ 100 µg/mL), an MIC [2] of 280 µM (≈ 85.1 µg/mL) and an MFC [3] of 496 µM (≈ 150 µg/mL). It also gave an MBC [4] of 495 µM (≈ 150 µg/mL), an MIC [5] of 330 µM (≈ 100 µg/mL) and an MIC [6] of 280 µM (≈ 85.1 µg/mL). The MIC [7] was 330 µM (≈ 100 µg/mL), the MBC [8] was 495 µM (≈ 150 µg/mL) and the MFC [9] was 660 µM (≈ 200 µg/mL). For the same molecule, the MIC [10] was 330 µM (≈ 100 µg/mL), the MIC [11] was 330 µM (≈ 100 µg/mL) and the MIC (10'-2 umol/ml) [12] was 33. It also gave an MIC [13] of 330 µM (≈ 100 µg/mL), an MIC [14] of 248 µM (≈ 75.1 µg/mL) and an MBC [15] of 495 µM (≈ 150 µg/mL). It also gave an MFC [16] of 496 µM (≈ 150 µg/mL), an MIC [17] of 330 µM (≈ 100 µg/mL) and an MBC [18] of 330 µM (≈ 100 µg/mL). The MFC [19] was 330 µM (≈ 100 µg/mL), the MIC [20] was 330 µM (≈ 100 µg/mL) and the MBC [21] was 330 µM (≈ 100 µg/mL). It also gave an MIC [22] of 330 µM (≈ 100 µg/mL), an MFC [23] of 496 µM (≈ 150 µg/mL) and an MFC [24] of 496 µM (≈ 150 µg/mL). It also gave an MFC [25] of 660 µM (≈ 200 µg/mL), an MBC [26] of 330 µM (≈ 100 µg/mL) and an MIC [27] of 330 µM (≈ 100 µg/mL). The MBC [28] was 330 µM (≈ 100 µg/mL), the MIC [29] was 330 µM (≈ 100 µg/mL) and the MBC [30] was 330 µM (≈ 100 µg/mL). For the same molecule, the MIC [31] was 165 µM (≈ 50.1 µg/mL) and the MFC [32] was 496 µM (≈ 150 µg/mL).

Molecule `CNc1nc(C)c(C(=O)/C=C/c2cccc(Cl)c2)s1` has an MIC [1] of 342 µM (≈ 100 µg/mL), an MIC [2] of 342 µM (≈ 100 µg/mL) and an MFC [3] of 513 µM (≈ 150 µg/mL). The MBC [4] was 513 µM (≈ 150 µg/mL), the MIC [5] was 342 µM (≈ 100 µg/mL) and the MIC [6] was 290 µM (≈ 85.1 µg/mL). For the same molecule, the MIC [7] was 340 µM (≈ 99.5 µg/mL), the MBC [8] was 513 µM (≈ 150 µg/mL) and the MFC [9] was 683 µM (≈ 200 µg/mL). The MIC [10] was 342 µM (≈ 100 µg/mL), the MIC [11] was 340 µM (≈ 99.5 µg/mL) and the MIC (10'-2 umol/ml) [12] was 17. For the same molecule, the MIC [13] was 85.4 µM (≈ 25 µg/mL), the MIC [14] was 290 µM (≈ 85.1 µg/mL) and the MBC [15] was 342 µM (≈ 100 µg/mL). For the same molecule, the MFC [16] was 513 µM (≈ 150 µg/mL), the MIC [17] was 256 µM (≈ 75.1 µg/mL) and the MBC [18] was 342 µM (≈ 100 µg/mL). It also gave an MFC [19] of 340 µM (≈ 99.5 µg/mL), an MIC [20] of 340 µM (≈ 99.5 µg/mL) and an MBC [21] of 342 µM (≈ 100 µg/mL). It also gave an MIC [22] of 340 µM (≈ 99.5 µg/mL), an MFC [23] of 513 µM (≈ 150 µg/mL) and an MFC [24] of 513 µM (≈ 150 µg/mL). The MFC [25] was 854 µM (≈ 250 µg/mL), the MBC [26] was 342 µM (≈ 100 µg/mL) and the MIC [27] was 340 µM (≈ 99.5 µg/mL). The MBC [28] was 513 µM (≈ 150 µg/mL), the MIC [29] was 340 µM (≈ 99.5 µg/mL) and the MBC [30] was 513 µM (≈ 150 µg/mL). It also gave an MIC [31] of 170 µM (≈ 49.8 µg/mL) and an MFC [32] of 513 µM (≈ 150 µg/mL).
